Experimental data as given in publication PMC10064330, “Reversible Dual-Covalent Molecular Locking of the 14-3-3/ERRγ Protein–Protein Interaction as a Molecular Glue Drug Discovery Approach” (Journal of the American Chemical Society, 2023).
Square brackets hold non-standard residues; d marks the D form. Peptide text beside a SMILES is read from it. pS = N[C@@H](COP(=O)(O)O)C(=O)O

Tests used:
14-3-3γ = target: T1, 14-3-3γ (Homo sapiens, UniProt P61981); experiment: FA binding of client phosphopeptides to 14-3-3γ (binary complex); details: no stabilizer (DMSO); read-out: KD of binary 14-3-3γ/peptide complex
T1 construct: made in house; host or cells: E. coli NiCo21 (DE3)
T1 sequence (P61981 1-247): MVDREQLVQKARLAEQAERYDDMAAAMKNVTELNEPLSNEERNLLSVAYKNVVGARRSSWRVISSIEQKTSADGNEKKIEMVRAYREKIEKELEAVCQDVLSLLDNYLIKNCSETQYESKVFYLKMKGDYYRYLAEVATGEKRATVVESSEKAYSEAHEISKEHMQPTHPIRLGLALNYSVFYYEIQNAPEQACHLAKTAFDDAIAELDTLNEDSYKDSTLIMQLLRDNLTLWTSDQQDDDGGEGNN

14-3-3γ/ERRγ complex = target: T2, 14-3-3γ/ERRγ complex (Homo sapiens, UniProt P61981+P62508); experiment: Fluorescence anisotropy (FA): 14-3-3γ titration to fluorescein-ERRγ phosphopeptide with 100 μM compound; format: binding; details: for stabilization factor SF100, Replicate 1 (Table S2) / stabilization factor SF100, Replicate 2 (Table S2) / stabilization factor SF100, Replicate 3 (Table S2) / stabilization factor SF100, Average (Table S2): KD DMSO control / apparent KD with 100 μM compound, 24 h; for stabilization factor SF100, Average (Table S2): average of three experiments
T2 construct: made in house; host or cells: E. coli NiCo21 (DE3)
Description: The stabilization of the ERRγ/14-3-3γ complex by the molecular locks was assessed using a fluorescence anisotropy (FA) assay where 14-3-3γ was titrated into a fluorescently labeled ERRγ phosphopeptide in the absence or presence of a 100 μM molecular lock (Figure 2a,b); this compound concentration was selected based on a FA compound titration assay (Figure S1).
Experimental Section Biophysical Assays
14-3-3γ protein expression (FA, TSA, MS assays)
A pPROEX HTb expression vector encoding the human 14-3-3 protein gamma (14-3-3γ) with a N-terminal his6-tag was transformed by heat shock into NiCo21 (DE3) competent cells. Single colonies were cultured in 50 mL LB medium (100 µg/mL ampicillin). After overnight incubation at 37 °C, cultures were transferred to 2 L TB media (100 µg/mL ampicillin, 1 mM MgCl2) and incubated at 37 °C until an OD600 nm of 0.8 -1.2 was reached. Protein expression was then induced with 0.4 mM isopropyl-β-d-thiogalactoside (IPTG), and cultures were incubated overnight at 18 °C. Cells were harvested by centrifugation (8600 rpm, 20 minu tes, 4 °C) and resuspended in lysis buffer (50 mM Hepes, pH 8.0, 300 mM NaCl, 12.5 mM imidazole, 5 mM MgCl2, 2 mM βME) containing cOmplete™ EDTA-free Protease Inhibitor Cocktail tablets (1 tablet/100 ml lysate) and benzonase ( 5 µl/100 ml). After lysis using a C3 Emulsiflex-C3 homogenizer (Avestin), the cell lysate was cleared by centrifugation (20000 rpm, 30 minutes, 4 °C) and purified using Ni2+-affinity chromatography (Ni -NTA superflow cartridges, Qiagen). Typically two 5 mL columns (flow 5 mL/min) were use d for a 2 L culture in which the lysate was loaded on the column , washed with 10 CV wash buffer (50 mM Hepes, pH 8.0, 300 mM NaCl, 25 mM imidazole, 2 mM βME), and eluted in several fractions (2-4 CV) of elution buffer (50 mM Hepes, pH 8.0, 300 mM NaCl, 250 mM imidazole, 2 mM βME). Fractions containing the 14 -3-3 protein were combined and dialyzed into 25 mM HEPES pH 8.0, 100 mM NaCl, 10 mM MgCl2, 500 µM TCEP. Finally, the protein was concentrated to ∼60 mg/mL, analyzed Q-Tof LC/MS, and aliquots were flash-frozen for storage at −80 °C.
14-3-3σΔc C38N protein expression (Crystallography)
A pPROEX HTb expression vector encoding the human 14-3-3 protein sigma truncated after T231 (14-3-3σΔc), mutated C38N, and containing a N-terminal his6-tag was transformed by heat shock into NiCo21 (DE3) competent cells. Single colonies were cultured in 50 mL LB medium (100 µg/mL ampicillin). After overnight incubation at 37 °C, cultures were transferred to 2 L TB media (100 µg/mL ampicillin, 1 mM MgCl2) and incubated at 37 °C until an OD600 nm of 0.8-1.2 was reached. Protein expression was then induced with 0.4 mM isopropyl-β-d-thiogalactoside (IPTG), and cultures were incubated overnight at 18 °C. Cells were harvested by centrifugation (8600 rpm, 20 minutes, 4 °C) and resuspended in lysis buffer (50 mM Hepes, pH 8.0, 300 mM NaCl, 12.5 mM imidazole, 5 mM MgCl2, 2 mM βME) containing cOmplete™ EDTA-free Protease Inhibitor Cocktail tablets (1 tablet/ 100 ml lysate) and benzonase (5 µl/ 100 ml). After lysis using a C3 Emulsiflex-C3 homogenizer (Avestin), […]
chromatography (Ni-NTA superflow cartridges, Qiagen). Typically two 5 mL columns were used for a 2 L culture in which the lysate was loaded on the column , washed with 10 CV wash buffer (50 mM Hepes, pH 8.0, 300 mM NaCl, 25 mM imidazole, 2 mM βME), and eluted with several fractions (2 -4 CV) of elution buffer (50 mM Hepes, pH 8.0, 300 mM NaCl, 250 mM imidazole, 2 mM βME). Fractions containing the 14-3-3 protein were combined and dialyzed into 25 mM HEPES pH 8.0, 200 mM NaCl, 10 mM MgCl 2, 2 mM βME. In addition, 1 mg TEV was added for each 100 mg purified protein to remove the purification tag. The cleaved sample was then again loaded on a 10 mL Ni-NTA column to separate the cleaved product from the expression tag and residual uncleaved protein. The flowthrough was loaded on a Superdex 75 pg 16/60 size exc lusion column (GE Life Sciences) using […]

Row | Structure (SMILES) | Kd (14-3-3γ) [µM] | stabilization factor SF100, Replicate 1 (Table S2) (14-3-3γ/ERRγ complex) | stabilization factor SF100, Replicate 2 (Table S2) (14-3-3γ/ERRγ complex) | stabilization factor SF100, Replicate 3 (Table S2) (14-3-3γ/ERRγ complex) | stabilization factor SF100, Average (Table S2) (14-3-3γ/ERRγ complex) | stabilization of 14-3-3γ/ERRγ complex (SF100, fold) (14-3-3γ/ERRγ complex; 100 μM compound, 24 h incubation)
1 | CC(=O)N[C@@H](CCCCN)C(=O)N[C@@H](CCCNC(=N)N)C(=O)N[C@@H](CCCNC(=N)N)C(=O)N[C@@H](CCCNC(=N)N)C(=O)N[C@@H](CCCCN)C(=O)N[C@@H](COP(=O)(O)O)C(=O)N[C@@H](CS)C(=O)N[C@@H](CCC(N)=O)C(=O)N[C@@H](C)C(N)=O [ERRγ] (Ac-KRRRK[pS]CQA-NH2; N-terminus and C-terminus assumed) | 6.5 ± 0.9 | – | – | – | – | –
2 | CN(C)CCSSCCN(C)C(=O)c1ccc(C=O)cc1 [compound 4] | – | 13.0 | 8.6 | 9.0 | 10.2 | –
3 | CN(C)CCSSCCN(C)C(=O)c1ccc(C=O)c(Br)c1 [compound 6] | – | 22.3 | 14.3 | 16.9 | 17.8 | –
4 | CN(C)CCSSCCN(C)S(=O)(=O)c1ccc(C=O)cc1 [compound 7] | – | 13.4 | 11.4 | 8.6 | 11.2 | –
5 | CN(C)CCSSCCN(C)C(=O)c1cccc(C=O)c1 [compound 8] | – | 25.5 | 17.3 | 19.0 | 20.6 | –
6 | CN(C)CCSSCCN(C)C(=O)c1ccc(F)c(C=O)c1 [compound 9] | – | 8.5 | 5.4 | 7.9 | 7.3 | least active
